Data taken from US11400082B2, “Methods of treating elevated plasma cholesterol” (Montréal Heart Institute, priority 2017, dated 2022).
Where “and” joins values, the source holds several entries; their conditions need not be identical. Identical values can stand only once. Like-named read-outs stand apart in the source and are kept apart here.

Assays:
LDLR protein [1] = assay: Western blot analysis, relative quantification of LDLR protein levels; format: cell-based, human; conditions: overnight, hepatoma cells (HepG2, FIG. 13), normalized to actin, vehicle (DMSO) = 1
Procedure: (§1) For sterol-regulated conditions, HepG2 cells were incubated in 5% LPDS, 50 μM mevastatin, and 50 μM mevalonolactone in the absence (-sterols) or presence of 1 μg/ml 25-hydroxycholesterol and 10 μg/ml cholesterol (+sterols). For inhibitor treatments HepG2 cells were treated with DMSO or 10 μM compounds 2 in combination with U0126 (25 μM, catalog no. 9903, Cell Signaling Technology), Cycloheximide (CHX; 20 μg/ml, catalog no. C7698, Sigma-Aldrich), PD153035 (20 μM, catalog no. 14879, Cayman Chemical), bisindolylmaleimide I (BIM; 10 μM, catalog no. 13298, Cayman Chemical), H-89 (10 μM, catalog no. 10010556, Cayman Chemical), Dorsomorphin (5 μM, catalog no. 11967, Cayman Chemical) or 5-Azacytidine (10 μM, catalog no. A2385, Sigma-Aldrich).
Treated cells from Example 28 were washed three times in phosphate-buffered saline (PBS) and lysed in radioimmune precipitation assay buffer (50 mM Tris/HCl, pH 8.0, 1% (v/v) Nonidet P-40, 0.5% sodium deoxycholate, 150 mM NaCl, and 0.1% (v/v) SDS) supplemented with a complete protease inhibitor mixture (catalog no. 11 697 498 001, Roche Applied Science). Proteins were separated by 8% SDS polyacrylamide gel electrophoresis, blotted on nitrocellulose membranes (Bio-Rad), and blocked for 1 h in Tris-buffered saline-Tween 20 (TBS-T; 50 mM Tris-HCl, pH 7.5, 150 mM NaCl, 0.1% Tween 20) containing 5% nonfat dry milk. Membranes were then incubated overnight in TBS-T supplemented with 1% nonfat milk and the indicated antibodies; goat anti-human LDLR (1:1000; catalog no. AF2148, R&D Systems), rabbit anti-actin (1:5000; catalog no. A2066, Sigma-Aldrich). Appropriate HRP-conjugated secondary antibodies (1:10,000; GE healthcare) were used for detection using the Western Lightning Ultra chemiluminescence kit (catalog no. NEI112001EA, PerkinElmer Life Sciences) and BioFlex EC Films (catalog no. CLEC810, InterScience). Unsaturated films were numerized using the high resolution CanoScan 9000F scanner and corresponding bands were quantified using the ImageJ software (NIH). Relative quantification of LDLR protein levels were normalized to that of actin and compared to vehicle (DMSO) herein determined as 1.

[2] = Cell viability assay (MTT); format: cell-based; conditions: human; overnight incubation, viability relative to DMSO
Procedure: Following incubation, media was replaced and cells incubated for 4 h with 100 μL of phenol red-free DMEM containing 0.5 mg/mL of MTT (3-[4,5-dimethylthiazol-2-yl]-2,5-diphenyltetrazolium bromide; thiazolyl blue; catalog no. M5655, Sigma-Aldrich). Afterwards, media was removed and converted dye solubilized with 100 μL acidic isopropanol (0.06 N) and absorbance measured at a wavelength of 570 nm with background subtraction at 650 nm. Arbitrary units of cell viability of a given example were determined relative to equal volume of DMSO (vehicle) for each concentration used.

LDLR protein [3] = format: cell-based, human
Procedure: as §1
Treated cells from Example 28 were washed three times in phosphate-buffered saline (PBS) and lysed in radioimmune precipitation assay buffer (50 mM Tris/HCl, pH 8.0, 1% (v/v) Nonidet P-40, 0.5% sodium deoxycholate, 150 mM NaCl, and 0.1% (v/v) SDS) supplemented with a complete protease inhibitor mixture (catalog no. 11 697 498 001, Roche Applied Science). […] Unsaturated films were numerized using the high resolution CanoScan 9000F scanner and corresponding bands were quantified using the ImageJ software (NIH). Relative quantification of LDLR protein levels were normalized to that of actin and compared to vehicle (DMSO) herein determined as 1.

Structure (SMILES)	LDLR Fold Change 10 μM (LDLR protein [1])	LDLR Fold Change 10 nM (LDLR protein [1])	other results
COc1ccc(COCc2cnc(C)c3c2COC(C)(C)O3)cc1 [Compound 9, 5-((4-methoxybenzyloxy)methyl)-2,2,8-trimethyl-4H-[1,3]dioxino[4,5-c]pyridine]	1.4		
COC(=O)c1ncc(COCc2ccc(OC)cc2)c2c1OC(C)(C)OC2 [Compound 10, methyl 5-((4-methoxybenzyloxy)methyl)-2,2-dimethyl-4H-[1,3] dioxino[4,5-c]pyridine-8-carboxylate]	1.2	1.7	
COC(=O)c1ncc(COCc2ccc(OC)cc2)c(C)c1O [Compound 8, 5-(4-methoxy-benzyloxymethyl)-3-hydroxy-4-methyl-pyridine-2-carboxylic acid methyl ester]	1.7	1.7	
COc1ccc(COCc2cnc(C(=O)O)c(O)c2C)cc1 [Compound 7, 5-(4-methoxy-benzyloxymethyl)-3-hydroxy-4-methyl-pyridine-2-carboxylic acid]	1.9 and 2-3	1.7	
O=C(NO)c1ncc(CCc2ccc(F)cc2)c(CO)c1O [Compound 6, 5-[2-(4-fluoro-phenyl)-ethyl]-3-hydroxy-4-hydroxymethyl-pyridine-2-carboxylic acid hydroxamide]	2.3	1.5	CC50 [2]: 39 µM
COc1c(C(=O)NO)ncc(C(=O)NCc2ccc(F)cc2)c1CO [Compound 19, 4-hydroxymethyl-3-methoxy-pyridine-2,5-dicarboxylic acid 5-(4-fluoro-benzylamide) 2-hydroxyamide]			CC50 [2]: 6.6 µM
CC1(C)OCc2c(CNCc3ccc(F)c(Cl)c3)cnc(C(=O)NO)c2O1.Cl [Compound 5, 5-{(1-3-chloro-4-fluoro-phenyl)aminomethyl} 2,2-dimethyl-4H-[1,3]dioxino[4,5-c]pyridine-8-carboxylic acid hydroxamide]	2.4		
COC(=O)c1ncc(C(=O)NCc2ccc(F)c(Cl)c2)c2c1OC(C)(C)OC2 [Compound 25, 2,2-dimethyl-4H-[1,3]dioxino[4,5-c]pyridine-5,8-dicarboxylic acid 5-(3-chloro-4-fluoro-benzylamide)-8-(methyl ester)]	1.9		
N#CC(=C(/N)Sc1ccccc1N)/C(C#N)=C(\N)Sc1ccccc1N [Compound U0126, U0126]			effect of combined inhibitor on increase of LDLR by Compound 2 (LDLR protein [3]): block increase of LDLR by Compound 2
C[C@@H]1C[C@@H]([C@H](O)CC2CC(=O)NC(=O)C2)C(=O)[C@@H](C)C1 [CHX, Cycloheximide]			effect of combined inhibitor on increase of LDLR by Compound 2 (LDLR protein [3]; HepG2 cells, 10 μM Compound 2 in combination with inhibitor (U0126 25 μM, CHX 20 μg/ml), FIG. 19): block increase of LDLR by Compound 2
Cc1ncc(COc2ccc(F)cc2)c(CO)c1O [Compound 27, 5-((4-fluorophenoxy)methyl)-3-hydroxy-4-(hydroxymethyl)picoline]	1.2	0.6	
Cc1ncc(COc2ccc(F)cc2)c2c1OC(C)(C)OC2 [Compound 26, 5-((4-fluorophenoxy)methyl)-2,2-dimethyl-4H-[1,3]dioxino[4,5-c]picoline]	1.5	1	
O=C(NO)c1ncc(COc2ccc(F)c(Cl)c2)c(CO)c1O [Compound 3, 5-(3-chloro-4-fluoro-phenoxymethyl)-3-hydroxy-4-hydroxymethyl-pyridine-2-carboxylic acid hydroxyamide]	5.6		CC50 [2]: 11 µM
O=C(NO)c1ncc(CNc2ccc(F)cc2)c(CO)c1O [Compound 1, 5-[(4-fluoro-phenylamino)-methyl]-3-hydroxy-4-hydroxymethyl-pyridine-2-carboxylic acid hydroxyamide]	6.9		CC50 [2]: 120 µM
O=C(NCc1ccc(F)c(Cl)c1)c1cnc(C(=O)NO)c(O)c1CO [Compound 4, N^5-(3-chloro-4-fluorobenzyl)-N^2,3-dihydroxy-4-(hydroxymethyl)pyridine-2,5-dicarboxamide]	2.7		
